A short description of data set [1]: Study on oral pharmacokinetics in rats. It counts as in vivo. The conditions noted are these: rat, plasma, male SD rats, 3 mg/kg by gavage, average; for AUC(0-inf): extrapolated to infinity, read-out: AUCINF_obs; for MRT inf: read-out: Average residence time MRTINF_obs; for half-life: read-out: Half life T1/2 (converted); for Cmax: read-out: Peak plasma concentration Cmax. The procedure: Study on Oral Pharmacokinetics in Rats • 1. […] The pharmacokinetic behaviors of the compounds of the present invention in rats were studied, and the pharmacokinetic properties of the compounds were evaluated. • 2. The test animals are healthy adult male SD rats, 3 in each group. • 3. […] Liquid chromatography tandem mass spectrometry (LC-MS/MS) was used to determine the plasma concentration of test compounds in rat after intragastrical administration of different compounds.

The test system of data set [2] is TNFα induced systemic inflammatory response syndrome (SIRS). As to the kind of experiment: TNFα induced C57BL/6 mouse systemic inflammatory response syndrome (SIRS) model (hypothermic shock). It counts as in vivo. Conditions: mTNFα 5 μg/mouse tail vein, drug by gavage 15 min before modeling. The procedure: TNFα Induced C57BL/6 Mouse Systemic Inflammatory Response Syndrome (SIRS) Model
Source, stirp and strain: C57BL/6 pure mouse, female, 18-20 g, purchased from Shanghai Lingchang Biotechnology Co., Ltd., license No. SCXK (Shanghai) 2013-0018. The animals were bred in the SPF animal room of Building No. 2 of the Shanghai institute of Materia Medica, and the experimental animal use license number is SYXK (Shanghai) 2013-0049. The animals were bred for at least one week before use at 22±1° C. with a humidity of 55±5% and 12 h light and dark cycle. Both feed and water are freely ingested by the animals after disinfection. All experiments were carried out in strict accordance with the relevant regulations on experimental animals.
2. Test Reagents and Materials: • 1) Recombinant Mouse mTNFα was purchased from Shanghai JIN′AN Biological Company. • 2) Experimental materials: 1.5 mL centrifuge tubes were purchased from Axygen Company, 15 mL and 50 mL centrifuge tubes were purchased from Corning Company; commonly used surgical instruments (ophthalmic scissors, large tweezers, small tweezers, tissue scissors) and 1 mL, 2 mL, and 10 mL disposable plastic dispensers were purchased from Sinopharm Chemical Reagent Co., Ltd.; pipettes of various specifications were purchased from Eppendorf Company; tips of various specifications were purchased from Axygen and Sartoruris Company. • 3) Experimental equipments: the syringe adopts omnican insulin syringes, a disposable syringe adopts sterile insulin syringe with a product number of 9161635, and an outer diameter and length of the needle tube of 0.30*8 mm; the mouse tail vein syringe is model YLS-Q9G purchased from Jinan Yyan Technology Development Co., Ltd.; Laboratory animal rectal temperature measuring instrument was model ALC-ET06 purchased from Shanghai Alcott Biotechnology Co., Ltd.
3. Reagents and Compound Preparation Methods: • 1) Recombinant Mouse mTNFα: mTNFα lyophilized powder was dissolved in PBS to prepare a stock solution of 200 μg/mL, and stored in a refrigerator at −20° C. after sub-packaging. The stock solution was put in a refrigerator at 4° C. overnight to reach dissolution equilibrium when in use. […] The drug concentration was determined comprehensively according to the results of in vitro experiments and the pharmacokinetic properties.
4. […] Therefore, the model with tail vein injection of TNFα was selected as the classic model for an animal level screen of RIP1 inhibitor. • 2) Experimental process: • a) The experimental animals were randomly grouped according to their body weight one day in advance, and there are 8 animals in each group. • b) On the day of the experiment, mTNFα and sterile PBS were diluted according to the above method, sucked into an insulin syringe at 125 μl/piece, that is, 5 μg/mice. • c) The drug was administered 15 min before modeling by gavage at 0.2 mL/mouse. • d) 15 min after administration, the modeling was started by injection of PBS or mTNFα into the tail vein, the injection was conducted according to the above dose. • e) After modeling, the rectal temperature was measured every 1 h and the survival rate was measured.
5. Testing Indicators: • 1) Animal body temperature: The rectal temperature was measured every 1 h after modeling. […]

Structures are written as SMILES.

For orientation: AUC(0-t) means exposure summed from dosing to a finite time, without extrapolation to infinity. Lower therefore signals less exposure.

In the case of `CN1C(=O)[C@@H](NC(=O)c2n[nH]c(Cc3ccccc3)n2)COc2ccc(C#Cc3cccnc3)cc21` [ZB-R-51], in data set [1], the AUC(0-t) came to 4210 ng·h/mL, the AUC(0-inf) was 4290 ng·h/mL, the MRT inf was found to be 2.8 h and the half-life was 1.79 h. For the same compound, the Cmax in data set [1] came out at 1360 ng/mL.
In data set [2], `CN1C(=O)[C@@H](NC(=O)c2n[nH]c(Cc3ccccc3)n2)COc2ccc(C#Cc3ccccn3)cc21` [ZB-R-50] returned a Survival rate of 100%. Also, in data set [1], the AUC(0-t) turned out to be 3110 ng·h/mL, the AUC(0-inf) was 3120 ng·h/mL, the MRT inf amounted to 2.2 h and the half-life was 1.56 h. In addition, in data set [1], the Cmax stood at 1450 ng/mL.
Regarding `CN1C(=O)[C@@H](NC(=O)c2n[nH]c(Cc3ccccc3)n2)COc2ccc(C#Cc3cnn(C)c3)cc21` [ZB-R-53], the Survival rate in data set [2] was determined as 100%. Also, in data set [1], the AUC(0-t) was 4500 ng·h/mL, the AUC(0-inf) was 4650 ng·h/mL, the MRT inf was 2.41 h and the half-life is 1.54 h. For the same compound, the Cmax in data set [1] was 1760 ng/mL.
For the compound `Cc1c(C#Cc2cnn(C)c2)sc2c1SC[C@H](NC(=O)c1nnc(Cc3ccccc3)[nH]1)C(=O)N2C` [ZB-R-39], in data set [1], the AUC(0-t) is 1680 ng·h/mL, the AUC(0-inf) is 1700 ng·h/mL, the MRT inf is 4.07 h and the half-life is 3.46 h. For the same compound, the Cmax in data set [1] is 525 ng/mL.
In turn, `CN1C(=O)[C@@H](NC(=O)c2n[nH]c(Cc3ccccc3)n2)COc2ccc(C#CC3CCOCC3)cc21` [ZB-R-54] had a Survival rate in data set [2] of 100%. In addition, in data set [1], the AUC(0-t) amounted to 1240 ng·h/mL, the AUC(0-inf) was 1250 ng·h/mL, the MRT inf stood at 2 h and the half-life is 1.14 h. Moreover, the Cmax in data set [1] is 667 ng/mL.
In data set [2], `CN1C(=O)[C@@H](NC(=O)c2n[nH]c(Cc3ccccc3)n2)COc2ccccc21` [GSK2982772, reference compound] displayed a Survival rate of 100%.
In data set [2], `CN1C(=O)[C@@H](NC(=O)c2n[nH]c(Cc3ccccc3)n2)COc2ccc(C#CC3CC3)cc21` [ZB-R-55] gave a Survival rate of 100%. Moreover, in data set [1], the AUC(0-t) was determined as 25700 ng·h/mL, the AUC(0-inf) is 26100 ng·h/mL, the MRT inf came out at 7.23 h and the half-life is 3.71 h. Besides, the Cmax in data set [1] was determined as 2900 ng/mL.
As for `CN1C(=O)[C@@H](NC(=O)c2n[nH]c(Cc3ccccc3)n2)COc2ccc(C#Cc3ccncc3)cc21` [ZB-R-52], in data set [1], the AUC(0-t) was found to be 1560 ng·h/mL, the AUC(0-inf) is 1560 ng·h/mL, the MRT inf was found to be 1.61 h and the half-life was 0.81 h. Also, in data set [1], the Cmax worked out at 755 ng/mL.

These data come from patent US12065447B2, “Heterocyclic amide for inhibiting RIP1 kinase and uses thereof” (SHANGHAI INSTITUTE OF MATERIA MEDICA, CHINESE ACADEMY OF …, priority 2018, dated 2024).
